# Reference: ChEMBL document CHEMBL1201862, “PubChem BioAssay data set” (2004)
# The source made the active and inactive calls.
# Key:
# [1] = molecular target: Sphingosine 1-phosphate receptor 1 (Homo sapiens, UniProt P21453); assay: Late stage counterscreen assay for S1P4 antagonists: Fluorescence dose response cell-based screening assay for antagonists of the Sphingosine 1-Phosphate Receptor 1 (S1P1). [Related pubchem assays (depositor defined):AID1510, AID1524, AID1692, AID1853, AID2332, AID489009, AID489017]; assay type: functional
# [2] = molecular target: Sphingosine 1-phosphate receptor 3 (Homo sapiens, UniProt Q99500); assay: Late stage counterscreen assay for S1P4 antagonists: Fluorescence dose response cell-based screening assay for antagonists of the Sphingosine 1-Phosphate Receptor 3 (S1P3). [Related pubchem assays (depositor defined):AID1510, AID1524, AID1692, AID1853, AID2332, AID489009, AID489017]; assay type: functional
# [3] = molecular target: Sphingosine 1-phosphate receptor 5 (Homo sapiens, UniProt Q9H228); assay: Late stage counterscreen assay for S1P4 antagonists: Fluorescence dose response cell-based screening assay for antagonists of the Sphingosine 1-Phosphate Receptor 5 (S1P5). [Related pubchem assays (depositor defined):AID1510, AID1524, AID1692, AID1853, AID2332, AID489009, AID489017]; assay type: functional
# [4] = molecular target: Sphingosine 1-phosphate receptor 2 (Homo sapiens, UniProt O95136); assay: Late stage counterscreen assay for S1P4 antagonists: Fluorescence dose response cell-based screening assay for antagonists of the Sphingosine 1-Phosphate Receptor 2 (S1P2). [Related pubchem assays (depositor defined):AID1510, AID1524, AID1692, AID1853, AID2332, AID489009, AID489017]; assay type: functional
# [5] = molecular target: T1, Sphingosine 1-phosphate receptor 4 (Homo sapiens, UniProt O95977); assay: potency of S1P4 blockers – cell-based, fluorescence, synthesized analogues, late-stage follow-up (AID 2346); assay type: functional
# T1 sequence (O95977 whole entry): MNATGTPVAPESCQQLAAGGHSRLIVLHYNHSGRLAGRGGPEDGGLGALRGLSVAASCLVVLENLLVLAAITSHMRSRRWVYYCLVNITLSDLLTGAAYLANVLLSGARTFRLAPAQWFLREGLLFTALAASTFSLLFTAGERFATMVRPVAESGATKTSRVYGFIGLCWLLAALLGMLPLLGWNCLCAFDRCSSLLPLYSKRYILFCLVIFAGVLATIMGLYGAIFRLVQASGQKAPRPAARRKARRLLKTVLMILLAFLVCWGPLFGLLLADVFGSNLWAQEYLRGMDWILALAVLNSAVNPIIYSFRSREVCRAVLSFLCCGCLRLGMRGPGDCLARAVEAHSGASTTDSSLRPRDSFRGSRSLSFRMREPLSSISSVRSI
# [6] = molecular target: Nucleotide-binding oligomerization domain-containing protein 2 (Homo sapiens, UniProt Q9HC29); assay: inhibition of MDP-driven NOD2 NF-kB reporter – cell-based, set 3, SAR follow-up (AID 2799); assay type: functional
# [7] = molecular target: Nucleotide-binding oligomerization domain-containing protein 1 (Homo sapiens, UniProt Q9Y239); assay: SAR analysis of compounds that inhibit NOD1 - Set 3. [Related pubchem assays (depositor defined):AID1566, AID1575, AID1578, AID1849, AID1852, AID2333, AID2335, AID2466]; assay type: functional
# [8] = molecular target: Tumor necrosis factor (Homo sapiens, UniProt P01375); assay: analog potency on TNFa NF-kB signaling – cell-based, set 3, SAR follow-up (AID 2801); assay type: functional
# [9] = system: HEK293; assay: SAR analysis of compounds that are cytotoxic to HEK293 - Set 3. [Related pubchem assays (depositor defined):AID1575, AID1578, AID1848, AID1849, AID2001, AID2333, AID2334, AID2335, AID2337, AID2469]; assay type: functional, cell-based; conditions: Homo sapiens
# [10] = molecular target: T2, RNA-binding protein pos-1 (Caenorhabditis elegans, UniProt G5EF15); assay: disruptors of C. elegans POS-1 RNA interaction – biochemical, fluorescence polarization, dose response (AID 1964);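 further: purified POS-1 fused to maltose binding protein made in E. coli; potency of compounds blocking POS-1 binding to fluorescent RNA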
# T2 sequence (G5EF15 whole entry): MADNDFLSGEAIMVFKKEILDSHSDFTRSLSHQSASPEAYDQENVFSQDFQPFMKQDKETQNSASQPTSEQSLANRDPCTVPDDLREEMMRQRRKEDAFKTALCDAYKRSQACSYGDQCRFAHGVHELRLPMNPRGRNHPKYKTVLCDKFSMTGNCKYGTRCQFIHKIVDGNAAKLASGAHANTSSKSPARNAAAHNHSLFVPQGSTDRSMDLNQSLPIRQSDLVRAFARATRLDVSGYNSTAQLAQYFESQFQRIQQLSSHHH
# [11] = molecular target: Lysine-specific demethylase 4C (Homo sapiens, UniProt Q9H3R0); assay: inhibition of JMJD2C H3K9me3 demethylation – biochemical, DELFIA europium, cherry-picked samples, dose response (AID 488835); assay type: functional
# [12] = molecular target: FAD-linked sulfhydryl oxidase ALR (Homo sapiens, UniProt P55789); assay: ALR-catalysed DTT oxidation blockers – biochemical, H2O2 detection, luminescence, cherry-pick, dose response (AID 493248)
# [13] = molecular target: T3, Zinc finger protein mex-5 (Caenorhabditis elegans, UniProt Q9XUB2); assay: potency of MEX-5 RNA-binding blockers – biochemical, C. elegans, fluorescence polarization, dose response (AID 1960)
# T3 sequence (Q9XUB2 whole entry): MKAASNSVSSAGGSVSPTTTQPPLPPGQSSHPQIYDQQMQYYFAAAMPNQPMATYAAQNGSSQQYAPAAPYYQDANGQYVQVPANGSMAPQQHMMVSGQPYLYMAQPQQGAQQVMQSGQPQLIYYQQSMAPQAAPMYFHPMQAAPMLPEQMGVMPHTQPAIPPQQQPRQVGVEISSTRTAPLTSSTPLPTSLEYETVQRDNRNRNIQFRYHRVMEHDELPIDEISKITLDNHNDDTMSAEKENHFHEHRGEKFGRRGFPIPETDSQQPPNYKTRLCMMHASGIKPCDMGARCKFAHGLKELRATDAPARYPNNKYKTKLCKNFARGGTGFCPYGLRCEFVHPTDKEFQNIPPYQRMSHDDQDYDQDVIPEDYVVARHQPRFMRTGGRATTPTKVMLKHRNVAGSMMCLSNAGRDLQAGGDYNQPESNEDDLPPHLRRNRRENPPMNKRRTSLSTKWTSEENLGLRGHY
# Chain of Sphingosine 1-phosphate receptor 3 (Q99500 whole entry): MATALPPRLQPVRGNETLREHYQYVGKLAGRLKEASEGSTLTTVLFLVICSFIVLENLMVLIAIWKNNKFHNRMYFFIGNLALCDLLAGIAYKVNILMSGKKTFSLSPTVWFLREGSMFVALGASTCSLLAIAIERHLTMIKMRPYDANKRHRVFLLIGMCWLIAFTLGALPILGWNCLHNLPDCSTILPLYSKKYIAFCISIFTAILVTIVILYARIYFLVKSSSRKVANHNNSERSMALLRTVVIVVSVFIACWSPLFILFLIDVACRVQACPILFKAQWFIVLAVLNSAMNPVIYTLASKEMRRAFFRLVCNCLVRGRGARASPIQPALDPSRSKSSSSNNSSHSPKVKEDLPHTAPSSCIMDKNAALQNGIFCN
# Chain of Sphingosine 1-phosphate receptor 1 (P21453 whole entry): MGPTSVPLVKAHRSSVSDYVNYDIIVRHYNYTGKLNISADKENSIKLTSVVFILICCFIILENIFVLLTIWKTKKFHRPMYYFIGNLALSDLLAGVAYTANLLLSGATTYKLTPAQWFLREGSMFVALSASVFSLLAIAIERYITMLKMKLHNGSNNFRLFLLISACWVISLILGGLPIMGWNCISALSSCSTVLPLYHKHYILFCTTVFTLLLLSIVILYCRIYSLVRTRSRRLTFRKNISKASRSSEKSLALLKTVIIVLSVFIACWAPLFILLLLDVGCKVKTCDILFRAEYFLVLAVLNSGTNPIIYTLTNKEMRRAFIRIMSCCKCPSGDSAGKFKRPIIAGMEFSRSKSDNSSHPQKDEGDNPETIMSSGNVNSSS
# Chain of Lysine-specific demethylase 4C (Q9H3R0 whole entry): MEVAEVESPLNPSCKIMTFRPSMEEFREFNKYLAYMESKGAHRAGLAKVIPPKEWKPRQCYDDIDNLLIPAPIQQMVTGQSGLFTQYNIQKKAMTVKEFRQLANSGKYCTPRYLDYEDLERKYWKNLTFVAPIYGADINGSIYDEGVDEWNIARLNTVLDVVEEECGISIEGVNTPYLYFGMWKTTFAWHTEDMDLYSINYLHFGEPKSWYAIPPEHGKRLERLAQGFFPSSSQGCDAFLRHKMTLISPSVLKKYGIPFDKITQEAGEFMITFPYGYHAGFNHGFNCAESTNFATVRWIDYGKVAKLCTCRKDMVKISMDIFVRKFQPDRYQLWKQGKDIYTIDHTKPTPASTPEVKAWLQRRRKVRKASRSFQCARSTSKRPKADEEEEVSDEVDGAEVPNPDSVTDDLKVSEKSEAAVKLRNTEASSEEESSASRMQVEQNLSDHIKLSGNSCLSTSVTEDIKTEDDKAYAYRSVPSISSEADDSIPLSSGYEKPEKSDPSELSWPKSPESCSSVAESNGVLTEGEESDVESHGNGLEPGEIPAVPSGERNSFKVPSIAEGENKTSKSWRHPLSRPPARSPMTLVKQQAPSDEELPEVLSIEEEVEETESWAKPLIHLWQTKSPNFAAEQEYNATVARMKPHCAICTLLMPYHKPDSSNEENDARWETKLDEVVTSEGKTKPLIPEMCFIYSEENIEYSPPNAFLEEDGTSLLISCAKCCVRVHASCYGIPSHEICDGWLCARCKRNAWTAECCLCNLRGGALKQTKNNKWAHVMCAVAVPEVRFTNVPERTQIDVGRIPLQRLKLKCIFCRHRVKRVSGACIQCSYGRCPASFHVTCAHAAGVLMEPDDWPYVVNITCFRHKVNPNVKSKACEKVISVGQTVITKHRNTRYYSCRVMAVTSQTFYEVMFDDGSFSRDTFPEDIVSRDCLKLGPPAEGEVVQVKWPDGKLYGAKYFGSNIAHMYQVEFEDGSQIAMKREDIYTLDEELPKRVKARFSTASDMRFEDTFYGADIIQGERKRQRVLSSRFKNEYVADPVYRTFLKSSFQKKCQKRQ
# Chain of Tumor necrosis factor (P01375 whole entry): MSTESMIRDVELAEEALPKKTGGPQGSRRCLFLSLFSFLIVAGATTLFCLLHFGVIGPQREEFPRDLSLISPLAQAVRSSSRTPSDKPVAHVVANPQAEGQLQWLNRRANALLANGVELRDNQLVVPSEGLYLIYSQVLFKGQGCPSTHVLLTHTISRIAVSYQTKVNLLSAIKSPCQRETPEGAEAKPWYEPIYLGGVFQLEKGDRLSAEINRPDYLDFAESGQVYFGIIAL
# Chain of Sphingosine 1-phosphate receptor 5 (Q9H228 whole entry): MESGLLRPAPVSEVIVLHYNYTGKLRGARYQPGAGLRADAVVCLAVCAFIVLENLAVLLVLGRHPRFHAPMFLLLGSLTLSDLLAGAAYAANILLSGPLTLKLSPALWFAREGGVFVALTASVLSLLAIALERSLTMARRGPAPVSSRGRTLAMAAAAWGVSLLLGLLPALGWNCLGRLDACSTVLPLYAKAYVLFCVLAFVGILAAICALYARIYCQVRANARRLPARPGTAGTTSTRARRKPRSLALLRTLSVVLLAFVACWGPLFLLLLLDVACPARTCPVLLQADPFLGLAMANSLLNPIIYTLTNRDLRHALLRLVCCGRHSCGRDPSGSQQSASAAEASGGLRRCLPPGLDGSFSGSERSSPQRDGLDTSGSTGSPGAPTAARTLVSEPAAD
# Chain of FAD-linked sulfhydryl oxidase ALR (P55789 whole entry): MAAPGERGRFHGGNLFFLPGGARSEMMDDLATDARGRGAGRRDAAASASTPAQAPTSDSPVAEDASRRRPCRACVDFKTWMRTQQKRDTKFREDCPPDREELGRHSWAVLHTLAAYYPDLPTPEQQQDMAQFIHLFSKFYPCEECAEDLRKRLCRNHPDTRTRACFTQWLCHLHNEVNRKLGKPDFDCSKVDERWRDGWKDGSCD
# Chain of Sphingosine 1-phosphate receptor 2 (O95136 whole entry): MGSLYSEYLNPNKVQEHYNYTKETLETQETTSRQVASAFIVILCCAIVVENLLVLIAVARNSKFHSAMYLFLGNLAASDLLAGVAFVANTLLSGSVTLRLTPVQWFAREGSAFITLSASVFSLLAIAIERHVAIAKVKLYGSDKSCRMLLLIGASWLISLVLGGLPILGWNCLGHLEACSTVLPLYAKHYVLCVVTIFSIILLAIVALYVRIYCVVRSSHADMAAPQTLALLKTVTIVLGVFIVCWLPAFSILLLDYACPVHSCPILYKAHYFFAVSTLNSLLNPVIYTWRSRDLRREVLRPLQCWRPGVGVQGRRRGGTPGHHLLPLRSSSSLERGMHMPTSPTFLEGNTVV
# Chain of Nucleotide-binding oligomerization domain-containing protein 2 (Q9HC29 whole entry, the tested form may be a part): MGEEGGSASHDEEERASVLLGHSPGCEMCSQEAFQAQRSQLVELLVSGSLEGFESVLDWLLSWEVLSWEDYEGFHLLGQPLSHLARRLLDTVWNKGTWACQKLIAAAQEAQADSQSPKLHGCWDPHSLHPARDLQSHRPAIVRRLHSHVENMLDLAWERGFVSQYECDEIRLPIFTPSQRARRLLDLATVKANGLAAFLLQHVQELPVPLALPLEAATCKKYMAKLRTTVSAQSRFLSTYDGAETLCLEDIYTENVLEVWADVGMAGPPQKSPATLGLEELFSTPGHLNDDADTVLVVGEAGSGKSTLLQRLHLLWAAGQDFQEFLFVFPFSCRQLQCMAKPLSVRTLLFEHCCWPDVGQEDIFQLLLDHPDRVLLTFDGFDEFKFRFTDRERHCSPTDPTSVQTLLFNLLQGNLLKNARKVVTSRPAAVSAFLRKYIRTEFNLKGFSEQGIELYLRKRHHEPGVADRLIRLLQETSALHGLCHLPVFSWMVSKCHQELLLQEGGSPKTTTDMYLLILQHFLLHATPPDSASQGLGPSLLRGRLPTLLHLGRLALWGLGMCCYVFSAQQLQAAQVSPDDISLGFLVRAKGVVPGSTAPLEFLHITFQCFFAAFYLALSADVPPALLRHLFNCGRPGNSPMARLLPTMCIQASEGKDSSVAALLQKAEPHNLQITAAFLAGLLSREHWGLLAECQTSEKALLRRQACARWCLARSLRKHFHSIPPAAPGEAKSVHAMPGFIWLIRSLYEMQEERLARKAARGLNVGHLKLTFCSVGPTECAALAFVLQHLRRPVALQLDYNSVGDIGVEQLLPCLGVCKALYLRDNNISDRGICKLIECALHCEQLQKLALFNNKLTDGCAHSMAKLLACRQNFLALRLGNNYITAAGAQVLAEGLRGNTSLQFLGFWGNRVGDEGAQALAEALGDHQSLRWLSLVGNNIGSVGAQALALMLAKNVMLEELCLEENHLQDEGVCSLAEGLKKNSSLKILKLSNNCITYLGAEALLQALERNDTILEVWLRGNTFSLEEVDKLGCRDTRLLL
# Chain of Nucleotide-binding oligomerization domain-containing protein 1 (Q9Y239 whole entry, the tested form may be a part): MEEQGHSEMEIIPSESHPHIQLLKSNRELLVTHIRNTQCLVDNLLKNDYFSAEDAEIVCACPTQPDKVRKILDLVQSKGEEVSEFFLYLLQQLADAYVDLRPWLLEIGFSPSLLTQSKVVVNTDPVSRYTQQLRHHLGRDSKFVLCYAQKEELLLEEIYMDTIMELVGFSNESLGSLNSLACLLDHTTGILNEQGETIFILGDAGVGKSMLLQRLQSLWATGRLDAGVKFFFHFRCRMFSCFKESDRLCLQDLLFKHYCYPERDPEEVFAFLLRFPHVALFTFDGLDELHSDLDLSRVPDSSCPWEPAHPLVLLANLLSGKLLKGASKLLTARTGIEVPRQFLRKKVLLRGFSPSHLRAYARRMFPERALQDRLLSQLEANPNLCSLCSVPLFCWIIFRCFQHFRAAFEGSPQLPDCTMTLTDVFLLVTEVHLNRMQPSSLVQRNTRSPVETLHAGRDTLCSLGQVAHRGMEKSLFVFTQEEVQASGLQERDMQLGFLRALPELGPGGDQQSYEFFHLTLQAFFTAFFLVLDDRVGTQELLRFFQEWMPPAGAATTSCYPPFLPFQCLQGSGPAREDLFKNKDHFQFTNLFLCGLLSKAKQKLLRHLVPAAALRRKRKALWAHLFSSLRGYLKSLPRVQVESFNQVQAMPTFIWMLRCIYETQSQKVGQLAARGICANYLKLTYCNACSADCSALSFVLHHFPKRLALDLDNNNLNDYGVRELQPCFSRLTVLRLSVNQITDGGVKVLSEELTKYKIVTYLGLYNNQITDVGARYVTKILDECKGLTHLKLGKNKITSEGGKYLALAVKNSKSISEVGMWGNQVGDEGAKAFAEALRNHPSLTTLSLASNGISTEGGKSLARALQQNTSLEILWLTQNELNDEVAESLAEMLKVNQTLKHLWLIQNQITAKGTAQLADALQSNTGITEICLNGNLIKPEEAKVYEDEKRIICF
smiles,measurement,setting,value
Cc1ccccc1NC(=O)c1ccc(-c2cc(Cl)ccc2Cl)o1,IC50,[1],> 25 µM (inactive)
same,IC50,[2],> 25 µM (inactive)
same,IC50,[3],> 25 µM (inactive)
same,IC50,[4],> 25 µM (inactive)
same,IC50,[5],0.393 µM (active)
N#Cc1ccc(S(=O)(=O)n2c(N)nc3ccccc32)cc1,IC50,[6],> 20 µM (inactive)
same,IC50,[7],> 20 µM (inactive)
same,IC50,[8],> 20 µM (inactive)
same,IC50,[9],> 20 µM (inactive)
Oc1cc2c(cc1O)C(c1ccccc1)CNCC2 (stereo not drawn),EC50,[10],109 µM (active)
same,AC50,[11],15.2 µM (active)
same,AC50,[12],5.38 µM (active)
same,EC50,[13],24 µM (active)
